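Five compound concentrations were applied to cells in 96-well plates for 48 hours; endpoints were derived by simple linear interpolation of the resulting dose-response curve. GI50 = concentration required for 50% inhibition of growth.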 Activity calls are given as the source filed them. No stated cut-off is given here; in the data, active = GI50 up to about 1.1 µM and inactive = higher.
Key:
Experiment in all cases: DTP human tumour cell line panel, 48 h
ACHN = system: ACHN
CCRF-CEM = system: CCRF-CEM
EKVX = system: EKVX
HCT-116 = system: HCT-116
HOP-92 = system: HOP-92
HT-29 = system: HT-29
KM12 = system: KM12
M14 = system: M14
Malme-3M = system: Malme-3M
NCI-H23 = system: NCI-H23
NCI-H460 = system: NCI-H460
NCI-H522 = system: NCI-H522
OVCAR-3 = system: OVCAR-3
OVCAR-5 = system: OVCAR-5
RXF 393 = system: RXF 393
SK-MEL-28 = system: SK-MEL-28
SNB-19 = system: SNB-19
U-251 = system: U-251
UACC-257 = system: UACC-257
UACC-62 = system: UACC-62

SMILES: CCc1cccc(C)c1NC(=S)NC(=O)c1ccccc1C(=O)NC(=S)Nc1c(C)cccc1CC
- GI50 (ACHN): > 100 µM (inactive)
- GI50 (CCRF-CEM): 36.3 µM (inactive)
- GI50 (EKVX): 59.6 µM (inactive)
- GI50 (HCT-116): 71.4 µM (inactive)
- GI50 (HOP-92): 19.1 µM (inactive)
- GI50 (HT-29): 43 µM (inactive)
- GI50 (KM12): 77.1 µM (inactive)
- GI50 (M14): > 100 µM (inactive)
- GI50 (Malme-3M): > 100 µM (inactive)
- GI50 (NCI-H23): 35.6 µM (inactive)
- GI50 (NCI-H460): 67.8 µM (inactive)
- GI50 (NCI-H522): 18.2 µM (inactive)
- GI50 (OVCAR-3): 23.8 µM (inactive)
- GI50 (OVCAR-5): > 100 µM (inactive)
- GI50 (RXF 393): > 100 µM (inactive)
- GI50 (SK-MEL-28): > 100 µM (inactive)
- GI50 (SNB-19): > 100 µM (inactive)
- GI50 (U-251): 67.6 µM (inactive)
- GI50 (UACC-257): > 100 µM (inactive)
- GI50 (UACC-62): 37.7 µM (inactive)

SMILES: CC(=O)Nc1ccc(C2=N/C(=C\c3ccc(Cl)cc3)C(=O)O2)cc1
- GI50 (ACHN): 27.4 µM (inactive)
- GI50 (CCRF-CEM): 26.7 µM (inactive)
- GI50 (EKVX): > 100 µM (inactive)
- GI50 (HCT-116): 36 µM (inactive)
- GI50 (HOP-92): 33.7 µM (inactive)
- GI50 (HT-29): 60.7 µM (inactive)
- GI50 (KM12): 33.1 µM (inactive)
- GI50 (M14): 25.5 µM (inactive)
- GI50 (Malme-3M): 87.7 µM (inactive)
- GI50 (NCI-H23): 36.4 µM (inactive)
- GI50 (NCI-H460): 69.5 µM (inactive)
- GI50 (NCI-H522): 25.4 µM (inactive)
- GI50 (OVCAR-3): 27.8 µM (inactive)
- GI50 (OVCAR-5): > 100 µM (inactive)
- GI50 (RXF 393): 53.5 µM (inactive)
- GI50 (SK-MEL-28): > 100 µM (inactive)
- GI50 (SNB-19): 63.7 µM (inactive)
- GI50 (U-251): 38.5 µM (inactive)
- GI50 (UACC-257): 45.7 µM (inactive)
- GI50 (UACC-62): 40.6 µM (inactive)

SMILES: N#CC(NNC(=O)c1ccccc1O)c1c(O)ccc2ccccc12 (stereo not given)
- GI50 (ACHN): 5.04 µM (inactive)
- GI50 (CCRF-CEM): 0.962 µM (active)
- GI50 (EKVX): 5.66 µM (inactive)
- GI50 (HCT-116): 2.84 µM (inactive)
- GI50 (HOP-92): 5.71 µM (inactive)
- GI50 (HT-29): 20.3 µM (inactive)
- GI50 (KM12): 4.84 µM (inactive)
- GI50 (M14): 3.46 µM (inactive)
- GI50 (Malme-3M): 6.27 µM (inactive)
- GI50 (NCI-H23): 4.65 µM (inactive)
- GI50 (NCI-H460): 2.99 µM (inactive)
- GI50 (NCI-H522): 4.42 µM (inactive)
- GI50 (OVCAR-3): 2.54 µM (inactive)
- GI50 (OVCAR-5): 4.38 µM (inactive)
- GI50 (RXF 393): 2.75 µM (inactive)
- GI50 (SK-MEL-28): 9.33 µM (inactive)
- GI50 (SNB-19): 13.6 µM (inactive)
- GI50 (U-251): 3.79 µM (inactive)
- GI50 (UACC-257): 3.67 µM (inactive)
- GI50 (UACC-62): 2.61 µM (inactive)

SMILES: CSc1cc(C(C)(C)C)ccc1C(O)c1ccc(C(C)(C)C)cc1SC
- GI50 (ACHN): 11.5 µM (inactive)
- GI50 (CCRF-CEM): 10.9 µM (inactive)
- GI50 (EKVX): 6.81 µM (inactive)
- GI50 (HCT-116): 5.56 µM (inactive)
- GI50 (HOP-92): 14.5 µM (inactive)
- GI50 (HT-29): 5.79 µM (inactive)
- GI50 (KM12): 11.5 µM (inactive)
- GI50 (M14): 12.2 µM (inactive)
- GI50 (Malme-3M): 14 µM (inactive)
- GI50 (NCI-H23): 8.49 µM (inactive)
- GI50 (NCI-H460): 8.2 µM (inactive)
- GI50 (NCI-H522): 10.2 µM (inactive)
- GI50 (OVCAR-3): 12.4 µM (inactive)
- GI50 (OVCAR-5): 14 µM (inactive)
- GI50 (RXF 393): 12.1 µM (inactive)
- GI50 (SK-MEL-28): 17.5 µM (inactive)
- GI50 (SNB-19): 16 µM (inactive)
- GI50 (U-251): 14.1 µM (inactive)
- GI50 (UACC-257): 10.4 µM (inactive)
- GI50 (UACC-62): 15.3 µM (inactive)

SMILES: CN(C)c1ncnc2c1Cc1ccccc1C(=O)N2C
- GI50 (ACHN): > 100 µM (inactive)
- GI50 (CCRF-CEM): > 100 µM (inactive)
- GI50 (EKVX): > 100 µM (inactive)
- GI50 (HCT-116): > 100 µM (inactive)
- GI50 (HOP-92): > 100 µM (inactive)
- GI50 (HT-29): > 100 µM (inactive)
- GI50 (KM12): > 100 µM (inactive)
- GI50 (M14): > 100 µM (inactive)
- GI50 (Malme-3M): > 100 µM (inactive)
- GI50 (NCI-H23): > 100 µM (inactive)
- GI50 (NCI-H460): > 100 µM (inactive)
- GI50 (NCI-H522): > 100 µM (inactive)
- GI50 (OVCAR-3): > 100 µM (inactive)
- GI50 (OVCAR-5): > 100 µM (inactive)
- GI50 (RXF 393): > 100 µM (inactive)
- GI50 (SK-MEL-28): > 100 µM (inactive)
- GI50 (SNB-19): > 100 µM (inactive)
- GI50 (U-251): > 100 µM (inactive)
- GI50 (UACC-257): > 100 µM (inactive)
- GI50 (UACC-62): > 100 µM (inactive)

SMILES: COc1ccc(NCc2cc(OC)cc(OC)c2)cc1
- GI50 (ACHN): 45.6 µM (inactive)
- GI50 (CCRF-CEM): 25.2 µM (inactive)
- GI50 (EKVX): 78.5 µM (inactive)
- GI50 (HCT-116): 15.6 µM (inactive)
- GI50 (HOP-92): 78.5 µM (inactive)
- GI50 (HT-29): 6.7 µM (inactive)
- GI50 (KM12): 5.7 µM (inactive)
- GI50 (M14): 22.2 µM (inactive)
- GI50 (Malme-3M): 40.4 µM (inactive)
- GI50 (NCI-H23): 26.3 µM (inactive)
- GI50 (NCI-H460): 20.1 µM (inactive)
- GI50 (NCI-H522): 7.62 µM (inactive)
- GI50 (OVCAR-3): 11.9 µM (inactive)
- GI50 (OVCAR-5): 24.7 µM (inactive)
- GI50 (RXF 393): 13.7 µM (inactive)
- GI50 (SK-MEL-28): 24.5 µM (inactive)
- GI50 (SNB-19): > 68.4 µM (inactive)
- GI50 (U-251): 24.4 µM (inactive)
- GI50 (UACC-257): 40.6 µM (inactive)
- GI50 (UACC-62): 9.48 µM (inactive)

SMILES: c1ccc2c(c1)[nH]c1c3ccccc3sc21
- GI50 (ACHN): > 100 µM (inactive)
- GI50 (CCRF-CEM): > 100 µM (inactive)
- GI50 (EKVX): 26.4 µM (inactive)
- GI50 (HCT-116): 82.6 µM (inactive)
- GI50 (HOP-92): > 100 µM (inactive)
- GI50 (HT-29): > 100 µM (inactive)
- GI50 (KM12): > 100 µM (inactive)
- GI50 (M14): > 100 µM (inactive)
- GI50 (Malme-3M): > 100 µM (inactive)
- GI50 (NCI-H23): > 100 µM (inactive)
- GI50 (NCI-H460): > 100 µM (inactive)
- GI50 (NCI-H522): > 100 µM (inactive)
- GI50 (OVCAR-3): > 100 µM (inactive)
- GI50 (OVCAR-5): > 100 µM (inactive)
- GI50 (RXF 393): 26.5 µM (inactive)
- GI50 (SK-MEL-28): > 100 µM (inactive)
- GI50 (SNB-19): > 100 µM (inactive)
- GI50 (U-251): 89.3 µM (inactive)
- GI50 (UACC-257): 36.5 µM (inactive)
- GI50 (UACC-62): > 100 µM (inactive)

From ChEMBL document CHEMBL1201862, “PubChem BioAssay data set” (2004)
